≈ marks a conversion by molar mass, not a printed value.
tested on: L. acidophilus; assay: agar dilution MIC assay of anaerobic bacteria; assay type: cell-based; details: Lactobacillus acidophilus, Micromyx Number 0681, Table 1
Protocol: (§1) Each compound was assayed against a panel of anaerobic bacteria in culture, consisting of Gram-positive organisms, such as Lactobacilli, Bifidobacteria, Clostridium spp., and Gram-negative bacteria, such as […] fragilis spp., according to guidelines of the Clinical and Laboratory Standards Institute (CLSI document M11-A7, CLSI, Wayne, Pa., 2007). […] One tenth mL of diluted bacteria containing 500-1000 colony-forming units (CFU) was plated and spread, and the plates incubated at 37° C. for 24-48 hours. MIC (minimum inhibitory concentration) is equivalent to the lowest concentration in μg/ml at which growth, i.e., colony formation, is not observed. […] Bacteria were assayed using a reference agar dilution method. Drug dilutions and drug-supplemented agar plates were prepared manually. The test organisms were maintained frozen at −80° C. The isolates were sub-cultured on Supplemented Brucella Agar (SBA) plates in a Bactron II anaerobic chamber and incubated for 48 hours at 35-36° C. in the Bactron II anaerobe chamber. Following inoculation, the drug-supplemented plates were incubated at 35° C. for 48 hours in the anaerobic environment (5% hydrogen, 5% carbon dioxide, 90% nitrogen) of the Bactron II. The MIC in μg/ml was read per Clinical and Laboratory Standards Institute guidelines.

Row | Structure (SMILES) | MIC
1 | CCc1cc(Nc2nc3ncn(CCCCCOC)c3c(=O)[nH]2)ccc1C [Compound 315C] | 16 µg/mL (≈ 43.3 µM)
2 | CCC[C@@H]1C[C@@H](C(=O)N[C@@H]([C@H]2O[C@H](SC)[C@H](O)[C@@H](O)[C@H]2O)[C@H](C)Cl)N(C)C1 [clindamycin, reference compound] | 4 µg/mL (≈ 9.41 µM)

tested on: Ba. fragilis; assay: agar dilution MIC assay of anaerobic bacteria; assay type: cell-based; details: Bacteroides fragilis, Ba. fragilis, Micromyx Number 0123 (ATCC strain), Gram negative, Table 1
Protocol: as §1

Row | Structure (SMILES) | MIC
3 | CCc1cc(Nc2nc3ncn(CCCCCOC)c3c(=O)[nH]2)ccc1C [Compound 315C] | > 32 µg/mL
4 | CCC[C@@H]1C[C@@H](C(=O)N[C@@H]([C@H]2O[C@H](SC)[C@H](O)[C@@H](O)[C@H]2O)[C@H](C)Cl)N(C)C1 [clindamycin, reference compound] | 1 µg/mL (≈ 2.35 µM)

tested on: L. casei; assay: agar dilution MIC assay of anaerobic bacteria; assay type: cell-based, Lactobacillus casei; details: Lacticaseibacillus casei, Micromyx Number 1722, Table 1
Protocol: as §1

Row | Structure (SMILES) | MIC
5 | CCc1cc(Nc2nc3ncn(CCCCCOC)c3c(=O)[nH]2)ccc1C [Compound 315C] | 32 µg/mL (≈ 86.6 µM)
6 | CCC[C@@H]1C[C@@H](C(=O)N[C@@H]([C@H]2O[C@H](SC)[C@H](O)[C@@H](O)[C@H]2O)[C@H](C)Cl)N(C)C1 [clindamycin, reference compound] | 2 µg/mL (≈ 4.71 µM)

tested on: E. lentum; assay: agar dilution MIC assay of anaerobic bacteria; assay type: cell-based, Eubacterium lentum; details: Eggerthella lenta; E. lentum, Micromyx Number 1274, Table 1; read-out: MIC
Protocol: as §1

Row | Structure (SMILES) | MIC
7 | CCc1cc(Nc2nc3ncn(CCCCCOC)c3c(=O)[nH]2)ccc1C [Compound 315C] | > 32 µg/mL
8 | CCC[C@@H]1C[C@@H](C(=O)N[C@@H]([C@H]2O[C@H](SC)[C@H](O)[C@@H](O)[C@H]2O)[C@H](C)Cl)N(C)C1 [clindamycin, reference compound] | 0.12 µg/mL (≈ 0.282 µM)

tested on: C. difficile; assay: agar dilution MIC assay of anaerobic bacteria; assay type: cell-based, Clostridium difficile; details: Clostridioides difficile, C. difficile, Micromyx Number 1209, Table 1; read-out: MIC
Protocol: as §1

Row | Structure (SMILES) | MIC
9 | CCc1cc(Nc2nc3ncn(CCCCCOC)c3c(=O)[nH]2)ccc1C [Compound 315C] | 16 µg/mL (≈ 43.3 µM)
10 | CCC[C@@H]1C[C@@H](C(=O)N[C@@H]([C@H]2O[C@H](SC)[C@H](O)[C@@H](O)[C@H]2O)[C@H](C)Cl)N(C)C1 [clindamycin, reference compound] | 4 µg/mL (≈ 9.41 µM)

same assay, conditions: Clostridioides difficile, C. difficile, Micromyx Number 3579, Table 1; read-out: MIC

Row | Structure (SMILES) | MIC
11 | CCc1cc(Nc2nc3ncn(CCCCCOC)c3c(=O)[nH]2)ccc1C [Compound 315C] | 16 µg/mL (≈ 43.3 µM)
12 | CCC[C@@H]1C[C@@H](C(=O)N[C@@H]([C@H]2O[C@H](SC)[C@H](O)[C@@H](O)[C@H]2O)[C@H](C)Cl)N(C)C1 [clindamycin, reference compound] | 16 µg/mL (≈ 37.6 µM)

same assay, conditions: Clostridioides difficile, C. difficile, Micromyx Number 3580, Table 1; read-out: MIC

Row | Structure (SMILES) | MIC
13 | CCc1cc(Nc2nc3ncn(CCCCCOC)c3c(=O)[nH]2)ccc1C [Compound 315C] | 8 µg/mL (≈ 21.7 µM)
14 | CCC[C@@H]1C[C@@H](C(=O)N[C@@H]([C@H]2O[C@H](SC)[C@H](O)[C@@H](O)[C@H]2O)[C@H](C)Cl)N(C)C1 [clindamycin, reference compound] | 8 µg/mL (≈ 18.8 µM)

same assay, conditions: Clostridioides difficile, C. difficile, Micromyx Number 3581, Table 1; read-out: MIC

Row | Structure (SMILES) | MIC
15 | CCc1cc(Nc2nc3ncn(CCCCCOC)c3c(=O)[nH]2)ccc1C [Compound 315C] | 8 µg/mL (≈ 21.7 µM)
16 | CCC[C@@H]1C[C@@H](C(=O)N[C@@H]([C@H]2O[C@H](SC)[C@H](O)[C@@H](O)[C@H]2O)[C@H](C)Cl)N(C)C1 [clindamycin, reference compound] | > 16 µg/mL

same assay, conditions: Clostridioides difficile, C. difficile, Micromyx Number 3582, Table 1; read-out: MIC

Row | Structure (SMILES) | MIC
17 | CCc1cc(Nc2nc3ncn(CCCCCOC)c3c(=O)[nH]2)ccc1C [Compound 315C] | > 32 µg/mL
18 | CCC[C@@H]1C[C@@H](C(=O)N[C@@H]([C@H]2O[C@H](SC)[C@H](O)[C@@H](O)[C@H]2O)[C@H](C)Cl)N(C)C1 [clindamycin, reference compound] | 0.5 µg/mL (≈ 1.18 µM)

same assay, conditions: Clostridioides difficile, C. difficile, Micromyx Number 3584, Table 1; read-out: MIC

Row | Structure (SMILES) | MIC
19 | CCc1cc(Nc2nc3ncn(CCCCCOC)c3c(=O)[nH]2)ccc1C [Compound 315C] | 8 µg/mL (≈ 21.7 µM)
20 | CCC[C@@H]1C[C@@H](C(=O)N[C@@H]([C@H]2O[C@H](SC)[C@H](O)[C@@H](O)[C@H]2O)[C@H](C)Cl)N(C)C1 [clindamycin, reference compound] | 8 µg/mL (≈ 18.8 µM)

same assay, conditions: Clostridioides difficile, C. difficile, Micromyx Number 3585, Table 1; read-out: MIC

Row | Structure (SMILES) | MIC
21 | CCc1cc(Nc2nc3ncn(CCCCCOC)c3c(=O)[nH]2)ccc1C [Compound 315C] | 16 µg/mL (≈ 43.3 µM)
22 | CCC[C@@H]1C[C@@H](C(=O)N[C@@H]([C@H]2O[C@H](SC)[C@H](O)[C@@H](O)[C@H]2O)[C@H](C)Cl)N(C)C1 [clindamycin, reference compound] | 8 µg/mL (≈ 18.8 µM)

same assay, conditions: Clostridioides difficile, C. difficile, Micromyx Number 3586, Table 1; read-out: MIC

Row | Structure (SMILES) | MIC
23 | CCc1cc(Nc2nc3ncn(CCCCCOC)c3c(=O)[nH]2)ccc1C [Compound 315C] | 8 µg/mL (≈ 21.7 µM)
24 | CCC[C@@H]1C[C@@H](C(=O)N[C@@H]([C@H]2O[C@H](SC)[C@H](O)[C@@H](O)[C@H]2O)[C@H](C)Cl)N(C)C1 [clindamycin, reference compound] | 8 µg/mL (≈ 18.8 µM)

same assay, conditions: Clostridioides difficile, C. difficile, Micromyx Number 3587, Table 1; read-out: MIC

Row | Structure (SMILES) | MIC
25 | CCc1cc(Nc2nc3ncn(CCCCCOC)c3c(=O)[nH]2)ccc1C [Compound 315C] | 8 µg/mL (≈ 21.7 µM)
26 | CCC[C@@H]1C[C@@H](C(=O)N[C@@H]([C@H]2O[C@H](SC)[C@H](O)[C@@H](O)[C@H]2O)[C@H](C)Cl)N(C)C1 [clindamycin, reference compound] | 8 µg/mL (≈ 18.8 µM)

same assay, conditions: Clostridioides difficile, C. difficile, Micromyx Number 3588, Table 1; read-out: MIC

Row | Structure (SMILES) | MIC
27 | CCc1cc(Nc2nc3ncn(CCCCCOC)c3c(=O)[nH]2)ccc1C [Compound 315C] | 4 µg/mL (≈ 10.8 µM)
28 | CCC[C@@H]1C[C@@H](C(=O)N[C@@H]([C@H]2O[C@H](SC)[C@H](O)[C@@H](O)[C@H]2O)[C@H](C)Cl)N(C)C1 [clindamycin, reference compound] | 8 µg/mL (≈ 18.8 µM)

same assay, conditions: Clostridioides difficile, C. difficile, Micromyx Number 3589, Table 1; read-out: MIC

Row | Structure (SMILES) | MIC
29 | CCc1cc(Nc2nc3ncn(CCCCCOC)c3c(=O)[nH]2)ccc1C [Compound 315C] | 16 µg/mL (≈ 43.3 µM)
30 | CCC[C@@H]1C[C@@H](C(=O)N[C@@H]([C@H]2O[C@H](SC)[C@H](O)[C@@H](O)[C@H]2O)[C@H](C)Cl)N(C)C1 [clindamycin, reference compound] | > 16 µg/mL

same assay, conditions: Clostridioides difficile, C. difficile, Micromyx Number 3590, Table 1; read-out: MIC

Row | Structure (SMILES) | MIC
31 | CCc1cc(Nc2nc3ncn(CCCCCOC)c3c(=O)[nH]2)ccc1C [Compound 315C] | 8 µg/mL (≈ 21.7 µM)
32 | CCC[C@@H]1C[C@@H](C(=O)N[C@@H]([C@H]2O[C@H](SC)[C@H](O)[C@@H](O)[C@H]2O)[C@H](C)Cl)N(C)C1 [clindamycin, reference compound] | 8 µg/mL (≈ 18.8 µM)

same assay, conditions: Clostridioides difficile, C. difficile, Micromyx Number 3591, Table 1; read-out: MIC

Row | Structure (SMILES) | MIC
33 | CCc1cc(Nc2nc3ncn(CCCCCOC)c3c(=O)[nH]2)ccc1C [Compound 315C] | 8 µg/mL (≈ 21.7 µM)
34 | CCC[C@@H]1C[C@@H](C(=O)N[C@@H]([C@H]2O[C@H](SC)[C@H](O)[C@@H](O)[C@H]2O)[C@H](C)Cl)N(C)C1 [clindamycin, reference compound] | 8 µg/mL (≈ 18.8 µM)

same assay, conditions: Clostridioides difficile, C. difficile, Micromyx Number 3593, Table 1; read-out: MIC

Row | Structure (SMILES) | MIC
35 | CCc1cc(Nc2nc3ncn(CCCCCOC)c3c(=O)[nH]2)ccc1C [Compound 315C] | 16 µg/mL (≈ 43.3 µM)
36 | CCC[C@@H]1C[C@@H](C(=O)N[C@@H]([C@H]2O[C@H](SC)[C@H](O)[C@@H](O)[C@H]2O)[C@H](C)Cl)N(C)C1 [clindamycin, reference compound] | 8 µg/mL (≈ 18.8 µM)

same assay, conditions: Clostridioides difficile, C. difficile, Micromyx Number 3594, Table 1; read-out: MIC

Row | Structure (SMILES) | MIC
37 | CCc1cc(Nc2nc3ncn(CCCCCOC)c3c(=O)[nH]2)ccc1C [Compound 315C] | 8 µg/mL (≈ 21.7 µM)
38 | CCC[C@@H]1C[C@@H](C(=O)N[C@@H]([C@H]2O[C@H](SC)[C@H](O)[C@@H](O)[C@H]2O)[C@H](C)Cl)N(C)C1 [clindamycin, reference compound] | > 16 µg/mL

same assay, conditions: Clostridioides difficile, C. difficile, Micromyx Number 3595, Table 1; read-out: MIC

Row | Structure (SMILES) | MIC
39 | CCc1cc(Nc2nc3ncn(CCCCCOC)c3c(=O)[nH]2)ccc1C [Compound 315C] | 8 µg/mL (≈ 21.7 µM)
40 | CCC[C@@H]1C[C@@H](C(=O)N[C@@H]([C@H]2O[C@H](SC)[C@H](O)[C@@H](O)[C@H]2O)[C@H](C)Cl)N(C)C1 [clindamycin, reference compound] | > 16 µg/mL

same assay, conditions: Clostridioides difficile, C. difficile, Micromyx Number 4381 (ATCC strain), Table 1; read-out: MIC

Row | Structure (SMILES) | MIC
41 | CCc1cc(Nc2nc3ncn(CCCCCOC)c3c(=O)[nH]2)ccc1C [Compound 315C] | 8 µg/mL (≈ 21.7 µM)
42 | CCC[C@@H]1C[C@@H](C(=O)N[C@@H]([C@H]2O[C@H](SC)[C@H](O)[C@@H](O)[C@H]2O)[C@H](C)Cl)N(C)C1 [clindamycin, reference compound] | 4 µg/mL (≈ 9.41 µM)

tested on: Bi. longum; assay: agar dilution MIC assay of anaerobic bacteria; assay type: cell-based, Bifidobacterium longum; details: Bifidobacterium longum; Bi. longum, Micromyx Number 3968, Table 1; read-out: MIC
Protocol: as §1

Row | Structure (SMILES) | MIC
43 | CCc1cc(Nc2nc3ncn(CCCCCOC)c3c(=O)[nH]2)ccc1C [Compound 315C] | > 32 µg/mL
44 | CCC[C@@H]1C[C@@H](C(=O)N[C@@H]([C@H]2O[C@H](SC)[C@H](O)[C@@H](O)[C@H]2O)[C@H](C)Cl)N(C)C1 [clindamycin, reference compound] | ≤ 0.03 µg/mL

tested on: Bi. brevi; assay: agar dilution MIC assay of anaerobic bacteria; assay type: cell-based, Bifidobacterium brevi; details: Bifidobacterium; Bi. brevi, Micromyx Number 3967, Table 1
Protocol: as §1

Row | Structure (SMILES) | MIC
45 | CCc1cc(Nc2nc3ncn(CCCCCOC)c3c(=O)[nH]2)ccc1C [Compound 315C] | > 32 µg/mL
46 | CCC[C@@H]1C[C@@H](C(=O)N[C@@H]([C@H]2O[C@H](SC)[C@H](O)[C@@H](O)[C@H]2O)[C@H](C)Cl)N(C)C1 [clindamycin, reference compound] | 0.12 µg/mL (≈ 0.282 µM)

Source: patent publication US8796292B2, “Selective antibacterials for clostridium difficile infections” (GLSynthesis Inc., priority 2009, dated 2014)
